Key:
HepG2 [1] = assay: Hypoglycemic activity in human HepG2 cells assessed as increase in glucose consumption after 48 hrs; assay type: functional, cell-based
HepG2 [2] = assay: Cytotoxicity against human HepG2 cells assessed as reduction in cell viability after 48 hrs by MTT assay; assay type: cell-based; settings: for IC50: Homo sapiens, HepG2, 48 h; for Activity: human, hepg2, 48 h
HepG2 [3] = assay: Hypoglycemic activity in human HepG2 cells assessed as increase in glucose consumption at 5 ug/ml after 48 hrs relative to BBR; assay type: functional
HepG2 [4] = assay: Hypoglycemic activity in human HepG2 cells assessed as increase in glucose consumption at 5 ug/ml after 48 hrs relative to control; assay type: functional
[5] = Ratio of compound IC50 to BBR IC50 for cytotoxicity against human HepG2 cells; assay type: cell-based; settings: read-out: Ratio IC50
HepG2 [6] = assay: Cytotoxicity against human HepG2 cells assessed as reduction in cell viability at 125 ug/ml after 48 hrs by MTT assay; assay type: cell-based; settings: hepg2, 48 h

## COc1cc(/C=C/C(=O)Oc2c(OC)ccc3cc4[n+](cc23)CCc2cc3c(cc2-4)OCO3)ccc1OC(C)=O.[Cl-]
HepG2 [1]
  Activity: Dose-dependent effect
HepG2 [2]
  IC50: 73.5 µg/mL
  Activity: Dose-dependent effect
HepG2 [3]
  Activity: 27.4%
HepG2 [4]
  Activity: 85.5%
[5]
  selectivity ratio: 1.57

## COc1ccc2cc3[n+](cc2c1OC(=O)c1ccncc1)CCc1cc2c(cc1-3)OCO2.[Cl-]
HepG2 [1]
  Activity: Dose-dependent effect
HepG2 [2]
  IC50: 82.5 µg/mL
  Activity: Dose-dependent effect
HepG2 [3]
  Activity: -10.6%
HepG2 [4]
  Activity: 30.2%

## COc1ccc2cc3[n+](cc2c1OC(=O)c1ccc(OC(C)=O)cc1)CCc1cc2c(cc1-3)OCO2.[Cl-]
HepG2 [1]
  Activity: Dose-dependent effect
HepG2 [2]
  IC50: 42.9 µg/mL
  Activity: Dose-dependent effect
HepG2 [3]
  Activity: -9.6%
HepG2 [4]
  Activity: 31.7%

## COc1ccc2cc3[n+](cc2c1OC(=O)/C=C/c1ccccc1)CCc1cc2c(cc1-3)OCO2.[Cl-]
HepG2 [1]
  Activity: Dose-dependent effect
HepG2 [2]
  IC50: 52.3 µg/mL
  Activity: Dose-dependent effect
HepG2 [3]
  Activity: 33.6%
HepG2 [4]
  Activity: 94.5%

## COc1ccc2cc3[n+](cc2c1OC)CCc1cc2c(cc1-3)OCO2 [BERBERINE]
HepG2 [6]
  Activity: Toxic
HepG2 [2]
  IC50: 46.9 µg/mL
  Activity: Dose-dependent effect
HepG2 [4]
  Activity: 45.6%

## COc1ccc2cc3[n+](cc2c1OC(=O)c1ccccc1[N+](=O)[O-])CCc1cc2c(cc1-3)OCO2.[Cl-]
HepG2 [1]
  Activity: Dose-dependent effect
HepG2 [2]
  IC50: 46.9 µg/mL
  Activity: Dose-dependent effect
HepG2 [3]
  Activity: -8.1%
HepG2 [4]
  Activity: 33.8%

## COc1ccc2cc3[n+](cc2c1OC(=O)c1cccnc1)CCc1cc2c(cc1-3)OCO2.[Cl-]
HepG2 [1]
  Activity: Dose-dependent effect
HepG2 [2]
  IC50: 72.1 µg/mL
  Activity: Dose-dependent effect
HepG2 [3]
  Activity: 0%
HepG2 [4]
  Activity: 45.7%

## COc1ccc2cc3[n+](cc2c1OC(=O)c1ccccc1)CCc1cc2c(cc1-3)OCO2.[Cl-]
HepG2 [1]
  Activity: Dose-dependent effect
HepG2 [2]
  IC50: 65.9 µg/mL
  Activity: Dose-dependent effect
HepG2 [3]
  Activity: -3.9%
HepG2 [4]
  Activity: 40%

## COc1ccc2cc3[n+](cc2c1OC(=O)c1ccccn1)CCc1cc2c(cc1-3)OCO2.[Cl-]
HepG2 [1]
  Activity: Dose-dependent effect
HepG2 [2]
  IC50: 41.6 µg/mL
  Activity: Dose-dependent effect
HepG2 [3]
  Activity: 4.2%
HepG2 [4]
  Activity: 51.7%

## COc1ccc2cc3[n+](cc2c1OC(=O)c1cccc([N+](=O)[O-])c1)CCc1cc2c(cc1-3)OCO2.[Cl-]
HepG2 [1]
  Activity: Dose-dependent effect
HepG2 [2]
  IC50: 27.9 µg/mL
  Activity: Dose-dependent effect
HepG2 [3]
  Activity: -12.1%
HepG2 [4]
  Activity: 28%

## COc1ccc2cc3[n+](cc2c1OC(=O)c1ccc([N+](=O)[O-])cc1)CCc1cc2c(cc1-3)OCO2.[Cl-]
HepG2 [1]
  Activity: Dose-dependent effect
HepG2 [2]
  IC50: 37.9 µg/mL
  Activity: Dose-dependent effect
HepG2 [3]
  Activity: -15.9%
HepG2 [4]
  Activity: 22.4%

## COc1cc(/C=C/C(=O)Oc2c(OC)ccc3cc4[n+](cc23)CCc2cc3c(cc2-4)OCO3)ccc1OC(=O)c1cccnc1.[Cl-]
HepG2 [1]
  Activity: Dose-dependent effect
HepG2 [6]
  Activity: Non-Toxic
HepG2 [2]
  IC50: 91.5 µg/mL
  Activity: Dose-dependent effect
HepG2 [3]
  Activity: -16.3%
HepG2 [4]
  Activity: 21.8%
[5]
  selectivity ratio: 1.95

## CN(C)C(=N)NC(=N)N [METFORMIN]
HepG2 [3]
  Activity: -17.6%
HepG2 [4]
  Activity: 20%

Reference: ChEMBL document CHEMBL4431369, “Synthesis and hypoglycemic activity of 9-O-(lipophilic group substituted) berberine derivatives” (Bioorg Med Chem Lett, 2016)
